From patent US20040058898A1, “Pharmaceutical composition for alleviating the violence of a mammal comprising nortestosterone derivatives” (priority 2002, published 2004)
“Also recorded” adds a separate entry of the source.

How the values were obtained:
Type in all cases: in vivo
[1] = system: male horses which violently behaved, cried and did not take feed; assay: Alleviation of the violence and stimulation of the appetite in male horse; settings: male horse 200 kg, intramuscular
From the text: (§1) After administration, their behaviors and appetites were observed.

[2] = system: male lion which violently behaved, cried and did not take feed; assay: Alleviation of the violence and stimulation of the appetite in male lion
[3] = system: male ostriches which violently behaved, cried and did not take feed; assay: Alleviation of the violence and stimulation of the appetite in male ostrich; settings: male ostrich 100 kg, intramuscular
From the text: as §1

[4] = system: male cats which violently behaved, cried and did not take feed; assay: Alleviation of the violence and stimulation of the appetite in male cat; settings: male cat 1 kg, intramuscular
From the text: as §1

[5] = system: male dogs which violently behaved, cried and did not take feed; assay: Alleviation of the violence and stimulation of the appetite in male dog; settings: male dog 40 kg, intramuscular
From the text: as §1

[6] = system: male goats which violently behaved, cried and did not take feed; assay: Alleviation of the violence and stimulation of the appetite in male goat; settings: male goat 40 kg, intramuscular
From the text: as §1

[7] = 200 mg (1 mg per kg), Experimental Example 24
[8] = male lion 100 kg, 100 mg (1 mg per kg), Experimental Example 28
[9] = male lion 100 kg, 10, 20, 50, 100, 150, 200, 500 and 1000 mg (0.1 to 10 mg per kg), Experimental Example 29
[10] = 100 mg (1 mg per kg), Experimental Example 1
[11] = 1 mg per Table 5 (1 mg per kg; 100 mg [sic]), Experimental Example 22
[12] = 40 mg (1 mg per kg), Experimental Example 20
[13] = 40 mg (1 mg per kg), Experimental Example 26
[14] = 40 mg (1 mg per kg), Experimental Example 26, listed as 17-decanoate-4-estren-3-one

## CCCCCCCCCC(=O)O[C@H]1CC[C@H]2[C@@H]3CCC4=CC(=O)CC[C@@H]4[C@H]3CC[C@]12C [17β-decanoate-4-estren-3-one]
[1]; 20 mg (0.1 mg per kg), Experimental Example 25
  Violence and appetite, After administration: appetite: stimulated appetite
[1]; 40 mg (0.2 mg per kg), Experimental Example 25
  Violence and appetite, After administration: appetite: stimulated appetite
[1]; 100 mg (0.5 mg per kg), Experimental Example 25
  Violence and appetite, After administration: appetite: stimulated appetite
[1]; [7]
  Violence and appetite, After administration: appetite: appetite stimulated; also recorded: stimulated appetite
  Violence and appetite, After administration: violence: violence of estrus alleviated
  feed intake after administration: increased feed intake
[1]; 200 mg (1.0 mg per kg), Experimental Example 25
  Violence and appetite, After administration: appetite: stimulated appetite
[1]; 300 mg (1.5 mg per kg), Experimental Example 25
  Violence and appetite, After administration: appetite: stimulated appetite
[1]; 400 mg (2.0 mg per kg), Experimental Example 25
  Violence and appetite, After administration: appetite: stimulated appetite
[1]; 1000 mg (5.0 mg per kg), Experimental Example 25
  Violence and appetite, After administration: appetite: stimulated appetite
[1]; 2000 mg (10 mg per kg), Experimental Example 25
  Violence and appetite, After administration: appetite: stimulated appetite
[2]; [8]
  appetite after intramuscular injection: appetite stimulated
  feed intake after administration: increased feed intake
  violence of estrus after intramuscular injection: violence of estrus alleviated
[2]; [9]
  appetite after intramuscular injection: appetite stimulated
  feed intake after administration: increased feed intake
  violence of estrus after intramuscular injection: violence of estrus alleviated
[3]; 10 mg (0.1 mg per kg), Experimental Example 2
  Violence and appetite, After administration: appetite: stimulated appetite
[3]; 20 mg (0.2 mg per kg), Experimental Example 2
  Violence and appetite, After administration: appetite: stimulated appetite
[3]; 50 mg (0.5 mg per kg), Experimental Example 2
  Violence and appetite, After administration: appetite: stimulated appetite
[3]; [10]
  Violence and appetite, After administration: appetite: appetite stimulated; also recorded: stimulated appetite
  Violence and appetite, After administration: violence: violence of estrus alleviated
  feed intake after administration: increased feed intake
[3]; 100 mg (1.0 mg per kg), Experimental Example 2
  Violence and appetite, After administration: appetite: stimulated appetite
[3]; 150 mg (1.5 mg per kg), Experimental Example 2
  Violence and appetite, After administration: appetite: stimulated appetite
[3]; 200 mg (2.0 mg per kg), Experimental Example 2
  Violence and appetite, After administration: appetite: stimulated appetite
[3]; 500 mg (5.0 mg per kg), Experimental Example 2
  Violence and appetite, After administration: appetite: stimulated appetite
[3]; 1000 mg (10 mg per kg), Experimental Example 2
  Violence and appetite, After administration: appetite: stimulated appetite
[4]; 0.1 mg (0.1 mg per kg), Experimental Example 23
  Violence and appetite, After administration: appetite: stimulated appetite
[4]; 0.2 mg (0.2 mg per kg), Experimental Example 23
  Violence and appetite, After administration: appetite: stimulated appetite
[4]; 0.5 mg (0.5 mg per kg), Experimental Example 23
  Violence and appetite, After administration: appetite: stimulated appetite
[4]; 1 mg (1.0 mg per kg), Experimental Example 23
  Violence and appetite, After administration: appetite: stimulated appetite
[4]; [11]
  Violence and appetite, After administration: appetite: appetite stimulated; also recorded: stimulated appetite
  Violence and appetite, After administration: violence: violence of estrus alleviated
  feed intake after administration: increased feed intake
[4]; 1.5 mg (1.5 mg per kg), Experimental Example 23
  Violence and appetite, After administration: appetite: stimulated appetite
[4]; 2 mg (2.0 mg per kg), Experimental Example 23
  Violence and appetite, After administration: appetite: stimulated appetite
[4]; 5 mg (5.0 mg per kg), Experimental Example 23
  Violence and appetite, After administration: appetite: stimulated appetite
[4]; 10 mg (10 mg per kg), Experimental Example 23
  Violence and appetite, After administration: appetite: stimulated appetite
[5]; 4 mg (0.1 mg per kg), Experimental Example 21
  Violence and appetite, After administration: appetite: stimulated appetite
[5]; 8 mg (0.2 mg per kg), Experimental Example 21
  Violence and appetite, After administration: appetite: stimulated appetite
[5]; 20 mg (0.5 mg per kg), Experimental Example 21
  Violence and appetite, After administration: appetite: stimulated appetite
[5]; [12]
  Violence and appetite, After administration: appetite: appetite stimulated; also recorded: stimulated appetite
  Violence and appetite, After administration: violence: violence of estrus alleviated
  feed intake after administration: increased feed intake
[5]; 40 mg (1.0 mg per kg), Experimental Example 21
  Violence and appetite, After administration: appetite: stimulated appetite
[5]; 60 mg (1.5 mg per kg), Experimental Example 21
  Violence and appetite, After administration: appetite: stimulated appetite
[5]; 80 mg (2.0 mg per kg), Experimental Example 21
  Violence and appetite, After administration: appetite: stimulated appetite
[5]; 200 mg (5.0 mg per kg), Experimental Example 21
  Violence and appetite, After administration: appetite: stimulated appetite
[5]; 400 mg (10 mg per kg), Experimental Example 21
  Violence and appetite, After administration: appetite: stimulated appetite
[6]; 4 mg (0.1 mg per kg), Experimental Example 27
  Violence and appetite, After administration: appetite: stimulated appetite
[6]; 8 mg (0.2 mg per kg), Experimental Example 27
  Violence and appetite, After administration: appetite: stimulated appetite
[6]; 20 mg (0.5 mg per kg), Experimental Example 27
  Violence and appetite, After administration: appetite: stimulated appetite
[6]; [13]
  Violence and appetite, After administration: appetite: stimulated appetite
  feed intake after administration: increased feed intake
[6]; [14]
  Violence and appetite, After administration: appetite: appetite stimulated
  Violence and appetite, After administration: violence: violence of estrus alleviated
[6]; 40 mg (1.0 mg per kg), Experimental Example 27
  Violence and appetite, After administration: appetite: stimulated appetite
[6]; 60 mg (1.5 mg per kg), Experimental Example 27
  Violence and appetite, After administration: appetite: stimulated appetite
[6]; 80 mg (2.0 mg per kg), Experimental Example 27
  Violence and appetite, After administration: appetite: stimulated appetite
[6]; 200 mg (5.0 mg per kg), Experimental Example 27
  Violence and appetite, After administration: appetite: stimulated appetite
[6]; 400 mg (10 mg per kg), Experimental Example 27
  Violence and appetite, After administration: appetite: stimulated appetite
